The values below come from paper PMC9750858, “Rapid biosensor development using plant hormone receptors as reprogrammable scaffolds” (Nature Biotechnology, 2022).

Residue numbers refer to the chain shown, from its start.

The target of one assay is T1, PYR1^DIAZI-M (Arabidopsis thaliana, UniProt O49686, A160V/E8G/F108Y/F159G/H60P/L87M/M158V/N90S/V81Y).
T1 construct: made in house
T1 sequence (O49686 with tags, fused parts or gaps E8G/H60P/V81Y/L87M/N90S/F108Y/M158V/F159G/A160V): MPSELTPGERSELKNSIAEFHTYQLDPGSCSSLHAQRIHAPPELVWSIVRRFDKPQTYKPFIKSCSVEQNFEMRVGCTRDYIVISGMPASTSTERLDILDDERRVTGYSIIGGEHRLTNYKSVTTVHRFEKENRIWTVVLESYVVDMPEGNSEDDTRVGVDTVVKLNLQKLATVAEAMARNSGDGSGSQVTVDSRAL
Nature of the assay: ELISA-like plate assay, immobilized PYR1^DIAZI-M, biotinylated ΔN-HAB1^T+. The assay is classed as binding. Conditions: tested at 20 μM, ELISA-format. Background: In an ELISA, binding on a coated surface is turned into a signal by an enzyme label.

The next assay deals with T2, PYR1^DIAZI / HAB1 (Arabidopsis thaliana, UniProt O49686, A160V/E8G/F108Y/F159G/L87M/M158V/V81Y).
T2 construct: made in house
T2 sequence (O49686 with tags, fused parts or gaps E8G/V81Y/L87M/F108Y/M158V/F159G/A160V): T1 sequence (O49686 with tags, fused parts or gaps E8G/H60P/V81Y/L87M/N90S/F108Y/M158V/F159G/A160V) with P60H, S90N
Nature of the assay: Ligand/receptor-mediated PP2C (HAB1 phosphatase) inhibition, PYR1^DIAZI. The assay is classed as biochemical.

The target in assay [1] is T3, PYR1^DIAZI (Arabidopsis thaliana, UniProt O49686, A160V/E8G/F108Y/F159G/L87M/M158V/V81Y). In words: Split NanoLuc luciferase complementation in yeast, NLuc^N-PYR1^DIAZI/NLuc^C-HAB1. The assay is classed as cell-based. Also on record: >PYR1-DIAZI; expressed in transfected cells; host or cells: Saccharomyces cerevisiae BY4742.
Assay [2] deals with T3, PYR1^DIAZI. In words: Yeast transcriptional activation circuit Z4-PYR1/VP64-ΔN-HAB1, GFP reporter, PYR1^DIAZI. Conditions: panel of six chemically similar organophosphates.
A further assay deals with T4, PYR1^PIRI / HAB1 (Arabidopsis thaliana, UniProt O49686, A160T/E130G/F159T/K59R/N119S/S122Q/S92M/V174A).
T4 construct: made in house
T4 sequence (O49686 with tags, fused parts or gaps K59R/S92M/N119S/S122Q/E130G/F159T/A160T/V174A): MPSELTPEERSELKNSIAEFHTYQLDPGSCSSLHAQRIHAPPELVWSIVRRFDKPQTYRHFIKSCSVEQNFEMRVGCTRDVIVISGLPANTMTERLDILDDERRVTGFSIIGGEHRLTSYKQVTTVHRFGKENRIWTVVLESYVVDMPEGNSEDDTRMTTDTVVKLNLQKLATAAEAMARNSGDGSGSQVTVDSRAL
In words: Ligand/receptor-mediated PP2C (HAB1 phosphatase) inhibition, PYR1^PIRI. The note with it: HAB1 inhibition and Y2H assays. The assay is classed as biochemical.

T3 sequence (Q9CAJ0 179-511): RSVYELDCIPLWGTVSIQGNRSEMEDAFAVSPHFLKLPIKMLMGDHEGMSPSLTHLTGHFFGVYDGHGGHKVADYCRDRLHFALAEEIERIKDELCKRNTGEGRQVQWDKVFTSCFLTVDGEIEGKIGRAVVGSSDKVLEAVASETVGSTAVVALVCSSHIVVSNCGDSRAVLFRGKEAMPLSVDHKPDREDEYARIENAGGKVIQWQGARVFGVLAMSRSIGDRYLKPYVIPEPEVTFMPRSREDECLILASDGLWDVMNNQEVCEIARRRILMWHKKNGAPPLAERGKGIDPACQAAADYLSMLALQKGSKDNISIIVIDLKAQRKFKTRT
T3 sequence (O49686 other isoform, or with tags, fused parts or gaps E8G/V81Y/L87M/F108Y/M158V/F159G/A160V): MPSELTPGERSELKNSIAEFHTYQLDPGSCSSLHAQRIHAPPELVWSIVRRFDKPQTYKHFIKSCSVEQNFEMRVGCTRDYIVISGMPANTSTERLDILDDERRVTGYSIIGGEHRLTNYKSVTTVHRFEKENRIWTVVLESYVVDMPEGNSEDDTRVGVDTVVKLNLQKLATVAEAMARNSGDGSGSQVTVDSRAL

For orientation: EC50 means the midpoint of the concentration-response curve. Read a high EC50 as a need for much substance. On to `CCOP(=S)(OCC)Oc1cc(C)nc(C(C)C)n1` [Diazinon, diazinon], for which the “discrimination of on-target ligand from other organophosphates by PYR1^DIAZI” value on PYR1^DIAZI-M is “good discrimination”. The EC50 on PYR1^DIAZI / HAB1 amounted to 0.036 µM; on PYR1^DIAZI [1], 0.024 µM. Moreover, the “PYR1^DIAZI EC50 to on-target ligand relative to other organophosphates” value at PYR1^DIAZI [2] is listed as “greater than tenfold lower than all other molecules profiled”. At PYR1^PIRI / HAB1, the “ligand concentrations required for activation of PYR1^PIRI above background” value is on record as “high-nanomolar to low-micromolar”.
